{"source": "paper PMC11387175", "about": "“Model informed dose regimen optimizing in development of leritrelvir for the treatment of mild or moderate COVID-19” (Frontiers in Pharmacology, 2024)", "key": {"[1]": {"test_system": "Omicron XBB.1.9.1 variant", "set-up": "method as in Chen et al., 2024", "conditions": "ref Chen et al., 2024, read-out: concentration for 90% of maximal effect (EC90); cited from earlier work"}, "[2]": {"test_system": "Omicron variant", "assay": "Target concentration needed to achieve EC90", "assay_type": "cell-based, SARS-CoV-2"}}}
{"smiles": "O=C(NC1CCCC1)C(=O)[C@H](C[C@@H]1CCNC1=O)NC(=O)[C@@H]1[C@H]2CCC[C@H]2CN1C(=O)[C@@H](NC(=O)C(F)(F)F)C1CCCCC1", "note": "[leritrelvir]", "values": [{"measurement": "EC90", "setting": "[1]", "value": 415, "unit": "nM"}, {"measurement": "concentration needed to achieve EC90", "setting": "[2]", "value": 0.2097, "unit": "µg/mL"}]}
